Results published in PubChem BioAssay (NCI).
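Compound exposure: 48 hours, 5 concentrations, 96-well plates. GI50 = concentration required for 50% inhibition of growth. TGI denotes the concentration required for complete inhibition of growth.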

Tests used:
Assay in all cases: NCI-60 cell line screen, 48 h; in the data active = GI50 below about 0.43 µM; inactive = the rest
[1] = system: 786-0 renal
[2] = system: A549 NSCLC
[3] = system: ACHN renal
[4] = system: CCRF-CEM leukemia
[5] = system: COLO 205 colon
[6] = system: DMS 114 small cell lung
[7] = system: DMS 273 small cell lung
[8] = system: EKVX NSCLC
[9] = system: HCC-2998 colon
[10] = system: HCT-116 colon
[11] = system: HCT-15 colon
[12] = system: HL-60(TB) leukemia
[13] = system: HOP-62 NSCLC
[14] = system: HT29 colon
[15] = system: IGROV1 ovarian
[16] = system: K-562 leukemia
[17] = system: KM20L2 colon
[18] = system: LOX IMVI melanoma
[19] = system: LXFL 529 NSCLC
[20] = system: M14 melanoma
[21] = system: M19-MEL melanoma
[22] = system: MOLT-4 leukemia
[23] = system: NCI-H226 lung
[24] = system: NCI-H23 lung
[25] = system: NCI-H460 lung
[26] = system: OVCAR-4 ovarian
[27] = system: OVCAR-5 ovarian
[28] = system: OVCAR-8 ovarian
[29] = system: RPMI-8226 leukemia
[30] = system: RXF 393 renal
[31] = system: SF-268 CNS
[32] = system: SF-539 CNS
[33] = system: SK-MEL-28 melanoma
[34] = system: SK-MEL-5 melanoma
[35] = system: SK-OV-3 ovarian
[36] = system: SN12C renal
[37] = system: SNB-19 CNS
[38] = system: SNB-75 CNS
[39] = system: SNB-78 CNS
[40] = system: SR leukemia
[41] = system: SW-620 colon
[42] = system: TK-10 renal
[43] = system: U251 CNS
[44] = system: UACC-257 melanoma
[45] = system: UACC-62 melanoma
[46] = system: UO-31 renal
[47] = system: XF 498 CNS
[48] = system: A498 renal
[49] = system: CAKI-1 renal
[50] = system: DLD-1 colon
[51] = system: HOP-92 NSCLC
[52] = system: OVCAR-3 ovarian
[53] = system: SF-295 CNS
[54] = system: BT-549 breast
[55] = system: DU-145 prostate
[56] = system: HS 578T breast
[57] = system: KM12 colon
[58] = system: MALME-3M melanoma
[59] = system: MCF7 breast
[60] = system: MDA-MB-231 breast
[61] = system: MDA-MB-435
[62] = system: MDA-N
[63] = system: NCI-H522 lung
[64] = system: NCI/ADR-RES ovarian
[65] = system: PC-3 prostate
[66] = system: SK-MEL-2 melanoma
[67] = system: T-47D breast

O=C1CCn2c([nH]c3cccc4cccc2c43)=N1
> 100 µM: TGI [1] | TGI [2] | TGI [3] | TGI [4] | TGI [5] | TGI [6] | TGI [7] | TGI [8] | TGI [9] | TGI [10] | TGI [11] | TGI [12] | TGI [13] | TGI [14] | TGI [15] | TGI [16] | TGI [17] | TGI [18] | TGI [19] | TGI [20] | TGI [21] | TGI [22] | TGI [23] | TGI [24] | TGI [25] | TGI [26] | TGI [27] | TGI [28] | TGI [29] | TGI [30] | TGI [31] | TGI [32] | TGI [33] | TGI [34] | TGI [35] | TGI [36] | TGI [37] | TGI [38] | TGI [39] | TGI [40] | TGI [41] | TGI [42] | TGI [43] | TGI [44] | TGI [45] | TGI [46] | TGI [47]

O=C1NC(=S)S/C1=C/c1ccco1
> 100 µM: TGI [2] | TGI [3] | TGI [49] | TGI [5] | TGI [50] | TGI [6] | TGI [7] | TGI [8] | TGI [9] | TGI [10] | TGI [11] | TGI [51] | TGI [14] | TGI [15] | TGI [18] | TGI [19] | TGI [20] | TGI [23] | TGI [24] | TGI [25] | TGI [52] | TGI [26] | TGI [27] | TGI [28] | TGI [30] | TGI [31] | TGI [53] | TGI [32] | TGI [33] | TGI [34] | TGI [35] | TGI [36] | TGI [37] | TGI [38] | TGI [41] | TGI [42] | TGI [44] | TGI [45] | TGI [46]
64.3 µM: TGI [48]

COc1cc2c3c(n(C)c(=O)c2cc1OC)-c1cc2c(cc1/C3=C/CCCCBr)OCO2
64.5 µM: TGI [29]
7.44 µM: TGI [4]
15.6 µM: TGI [40]
96.1 µM: TGI [38]
87.4 µM: TGI [48]
inactive: GI50 [55] 4.46 µM | GI50 [10] 9.47 µM | GI50 [13] 26.6 µM | GI50 [61] > 100 µM | GI50 [52] > 100 µM | GI50 [32] 7.07 µM | GI50 [36] > 100 µM | GI50 [45] > 100 µM
> 100 µM: TGI [1] | TGI [2] | TGI [3] | TGI [54] | TGI [49] | TGI [5] | TGI [55] | TGI [8] | TGI [10] | TGI [11] | TGI [12] | TGI [13] | TGI [51] | TGI [56] | TGI [14] | TGI [15] | TGI [16] | TGI [57] | TGI [18] | TGI [20] | TGI [58] | TGI [59] | TGI [60] | TGI [61] | TGI [62] | TGI [22] | TGI [24] | TGI [25] | TGI [63] | TGI [64] | TGI [52] | TGI [27] | TGI [28] | TGI [65] | TGI [30] | TGI [31] | TGI [53] | TGI [32] | TGI [66] | TGI [33] | TGI [34] | TGI [35] | TGI [36] | TGI [37] | TGI [41] | TGI [67] | TGI [42] | TGI [43] | TGI [44] | TGI [45] | TGI [46]

Cc1c(-c2nc(N)nc(C3CC3)c2C)nc(N)nc1C1CC1
> 100 µM: TGI [1] | TGI [48] | TGI [2] | TGI [3] | TGI [54] | TGI [49] | TGI [4] | TGI [5] | TGI [55] | TGI [8] | TGI [9] | TGI [10] | TGI [11] | TGI [12] | TGI [13] | TGI [51] | TGI [56] | TGI [14] | TGI [15] | TGI [16] | TGI [57] | TGI [18] | TGI [20] | TGI [58] | TGI [59] | TGI [60] | TGI [61] | TGI [62] | TGI [22] | TGI [23] | TGI [24] | TGI [25] | TGI [63] | TGI [64] | TGI [52] | TGI [26] | TGI [27] | TGI [28] | TGI [65] | TGI [29] | TGI [30] | TGI [31] | TGI [53] | TGI [32] | TGI [66] | TGI [33] | TGI [34] | TGI [35] | TGI [36] | TGI [37] | TGI [38] | TGI [40] | TGI [41] | TGI [67] | TGI [42] | TGI [43] | TGI [44] | TGI [45] | TGI [46]

CCOC(=O)C1=C(C)NC(=O)N([N+](=O)[O-])C1c1ccccc1C(F)(F)F (stereo unspecified)
79.7 µM: TGI [62]
72.4 µM: TGI [29]
> 100 µM: TGI [48] | TGI [2] | TGI [3] | TGI [54] | TGI [49] | TGI [4] | TGI [5] | TGI [55] | TGI [10] | TGI [11] | TGI [12] | TGI [13] | TGI [51] | TGI [56] | TGI [14] | TGI [15] | TGI [16] | TGI [18] | TGI [20] | TGI [58] | TGI [59] | TGI [60] | TGI [61] | TGI [22] | TGI [23] | TGI [24] | TGI [25] | TGI [64] | TGI [52] | TGI [26] | TGI [27] | TGI [28] | TGI [65] | TGI [30] | TGI [31] | TGI [53] | TGI [66] | TGI [33] | TGI [34] | TGI [35] | TGI [36] | TGI [37] | TGI [40] | TGI [41] | TGI [67] | TGI [42] | TGI [43] | TGI [44] | TGI [45] | TGI [46]
71.9 µM: TGI [32]

CC(C)(C)OC(=O)c1ccc(NCc2cc(O)ccc2O)cc1
5.59 µM: TGI [26]
6.9 µM: TGI [54]
3.12 µM: TGI [11]
9.31 µM: TGI [60]
21.9 µM: TGI [27]
3.4 µM: TGI [51]
> 34.5 µM: TGI [40]
12.2 µM: TGI [57]
44.3 µM: TGI [35]
13.1 µM: TGI [34]
5.47 µM: TGI [15]
0.557 µM: TGI [63]
5.28 µM: TGI [33] | TGI [36]
5.38 µM: TGI [1]
2.57 µM: TGI [67]
3.9 µM: TGI [4] | TGI [52]
> 55.2 µM: TGI [28]
3.35 µM: TGI [30]
3.46 µM: TGI [3]
16.3 µM: TGI [62]
12 µM: TGI [8]
18.8 µM: TGI [66]
3.75 µM: TGI [65]
13 µM: TGI [29]
4.08 µM: TGI [12]
17.3 µM: TGI [31]
9.32 µM: TGI [43]
2.73 µM: TGI [32]
2.51 µM: TGI [46]
15.9 µM: TGI [45]
38.1 µM: TGI [16]
41.3 µM: TGI [13]
19.5 µM: TGI [48]
22.1 µM: TGI [9]
14.9 µM: TGI [44]
11.2 µM: TGI [22]
29.3 µM: TGI [53]
43.3 µM: TGI [55]
6.07 µM: TGI [42]
16.8 µM: TGI [24]
18.4 µM: TGI [59] | TGI [38]
14.5 µM: TGI [41]
18.6 µM: TGI [56]
3.99 µM: TGI [58]
> 89.4 µM: TGI [2]
8.64 µM: TGI [23]
38.8 µM: TGI [37]
2.61 µM: TGI [49]
5.48 µM: TGI [5]
12.5 µM: TGI [64]
33.7 µM: TGI [14]
13.5 µM: TGI [18]
16.1 µM: TGI [10] | TGI [61]
> 73.8 µM: TGI [25]
7.35 µM: TGI [20]

CCC1C(=O)OCc2c1cc1n(c2=O)CCC12OCCO2 (stereo unspecified)
> 100 µM: TGI [1] | TGI [48] | TGI [2] | TGI [3] | TGI [49] | TGI [4] | TGI [5] | TGI [50] | TGI [6] | TGI [7] | TGI [8] | TGI [9] | TGI [10] | TGI [11] | TGI [12] | TGI [13] | TGI [51] | TGI [14] | TGI [15] | TGI [16] | TGI [57] | TGI [17] | TGI [18] | TGI [19] | TGI [20] | TGI [21] | TGI [22] | TGI [23] | TGI [24] | TGI [25] | TGI [63] | TGI [26] | TGI [27] | TGI [28] | TGI [29] | TGI [31] | TGI [53] | TGI [32] | TGI [66] | TGI [33] | TGI [34] | TGI [35] | TGI [36] | TGI [37] | TGI [38] | TGI [39] | TGI [40] | TGI [41] | TGI [42] | TGI [43] | TGI [44] | TGI [45] | TGI [46] | TGI [47]
